Experimental findings from patent publication US8680058B2, “Selectively targeted antimicrobial peptides and the use thereof” (priority 2006, dated 2014) are described below.

One experiment relates to S. sanguinis. The format is cell-based, S. sanguinis NY101. The procedure: (§1) 1.3 Determination of antimicrobial activity. The general antimicrobial activity of peptides against planktonic bacteria was determined by a MIC assay in TH broth (all oral streptococci) (Qi et al., 2005).
(§2) S. mutans, S. gordonii Challis (DL1), and S. sanguinis NY101 strains were grown in Todd Hewitt (TH, Fisher) broth medium at 37° C. under anaerobic conditions (80% N2, 10% CO2, and 10% H2). S. mutans strains UA159 (Ajdic et al., 2002), ATCC 25175, and T8 (Rogers, 1975), are wild-type clinical isolates, while comD is a knockout mutant that was constructed previously from the wild-type UA140 background (Qi et al., 2005). Luciferase expressing S. mutans strain JM11 was constructed from UA140 as described (Merritt et al., 2005). Exponentially growing bacterial cells were diluted to ˜1×10^5 cfu/mL in TH and placed into 96-well plates (Fisher). Peptides were then serially diluted and added to the bacteria.

A further experiment deals with S. gordonii biofilms. In words: Single-species biofilm regrowth after peptide exposure, S. gordonii. The format is cell-based. The following applies: 25 μM peptide, 1 min exposure. Here is the method:
(§3) 1.5 Examination of antimicrobial activity against single-species biofilms. To initiate biofilm formation, ˜1×10^7 bacteria per well (from overnight cultures) were seeded in TH medium (100 μL) to a 96-well flat-bottom plate. For all streptococci except S. mutans, the medium was supplemented with 0.5% (w/v) mannose and glucose. S. mutans UA159 biofilms were grown with 0.5% (w/v) sucrose. Plates were then centrifuged briefly to pellet the cells, and bacteria were incubated for 3-4 hours at 37° C. for biofilm formation. After incubation, the supernatant was carefully removed and biofilms were treated with 25 μM peptide in 1×PBS or 1×PBS alone for 1 min. The peptide solution was then removed and 100 μL TH was added to further dilute any remaining peptide. To minimize biofilm loss, cells were briefly centrifuged after TH addition, after which the supernatants were removed and fresh medium plus appropriate sugars were returned. Cells were then incubated anaerobically at 37° C. and biofilm growth was monitored over time by measuring absorbance at OD600 with a microplate spectrophotometer (Benchmark Plus, BioRad).

Another experiment concerns S. gordonii. Format: cell-based, S. gordonii Challis (DL1). Here is the method:
as §1, §2

The next experiment deals with S. mutans. Format: cell-based, Streptococcus mutans. The procedure: as §1, §2
The next experiment concerns S. sanguinis biofilms. In words: Single-species biofilm regrowth after peptide exposure, S. sanguinis. The format is cell-based. The following applies: 25 μM peptide, 1 min exposure. Here is the method: as §3
The subject of the next experiment is S. mutans biofilms. In words: Single-species biofilm regrowth after peptide exposure, S. mutans. The format is cell-based, Streptococcus mutans. The following applies: 25 μM peptide, 1 min exposure. Here is the method: as §3
The next experiment relates to S. mutans UA159 and comD. In words: Binding of fluorescently labeled peptides to S. mutans (fluorescence microscopy). On the set-up: species or system Streptococcus mutans. The following applies: fluorescently labeled peptide. The source says:
To determine whether there was a region within the CSPC16 sequence that was responsible for S. mutans-specific binding, we synthesized a series of fluorescently labeled CSPC16 fragments, and analyzed their ability to bind to S. mutans. The following strategies were utilized in dissecting the CSPC16 sequence (Table 2): First, a series of fragments were constructed by generating deletions of 3 or 4 amino acids, from the N to C terminus, across the CSPC16 sequence (C16-1 to C16-5). Peptides lacking larger portions of the C or N termini of CSPC16 were also synthesized (C16-6 to C16-12). Additionally, peptides with Arg to […] (a positive to negative change in charge) (C16-4) or Phe to Gly substitutions (for a general decrease in hydrophobicity) (C16-3), as well as peptides representing a 4-residue Ala scan of the C16 sequence were constructed (C 16-15 to C16-18). […] These peptides include C16 (SEQ ID NO 1), C16-3 (SEQ ID NO 39), C16-4 (SEQ ID NO 40), C16-5 (SEQ ID NO 41), C16-6 (SEQ ID NO 42), C16-11 (SEQ ID NO 47), C16-12 (SEQ ID NO 5), C16-16 (SEQ ID NO 51), C16-17 (SEQ ID NO 52), and C16-18 (SEQ ID NO 53).
1.2 Fluorescent labeling of peptides and fluorescence microscopy. Aliquots of CSPC16 (SEQ ID NO 2), CSP-fragment peptides (Table 2), and C16G2 (SEQ ID NO 4) were labeled with carboxyfluorescein (Sigma) as described previously (Eckert et al., 2006). After peptide cleavage but prior to the bacterial labeling assay, fluorescence intensity per μM peptide was checked fluorimetrically (λex=488 nm, λem=520 nm VersaFluor, BioRad) and found to be relatively similar (data not shown). To evaluate the level of peptide binding to bacteria, streptococci from an overnight culture (OD600 of 0.7-1.0) were washed with phosphate buffered saline (1×PBS), diluted 1:2 into 1×PBS, and exposed to peptide (16 μM) for 5 min at 25° C. After incubation with peptide, unbound agent was removed from the bacteria by three cycles of centrifugation (5 min, 16,000×g) and resuspension in 1×PBS. Labeling of oral streptococci was evaluated using brightfield and fluorescence microscopy (Nikon E400) at a 40× magnification. The digital images utilized for the semi-quantitative binding assessment were acquired with the factory-supplied software (SPOT, Diagnostics).

In the next experiment the test system is P. aeruginosa. In words: microbe, parasite or virus in culture. The format is cell-based, Pseudomonas aeruginosa. The procedure:
2.3 Antimicrobial Activities. The general antimicrobial activities of G10KHc, G10, and tobramycin against clinical isolates of P. aeruginosa were evaluated by minimum inhibitory concentration (MIC) assay as previously described (Eckert et al., 2006) and shown in Table 5. MICs are reported in μM, though for familiarity, 1 μM tobramycin=0.468 μg/mL. P. aeruginosa were grown to log phase and adjusted to ˜1×10^5 cfu/mL in Mueller-Hinton (MH) broth and added to 96-well plates. Two-fold serial dilutions of peptide were then added to bacteria and the plates incubated for 18-24 hours at 37° C. MIC was determined as the concentration of peptide present in the last clear well (no growth). […] In contrast to tobramycin, G10KHc was also effective against aminoglycoside and multiple-antibiotic resistant P. aeruginosa isolated from CF patients (AGR10, MR15). Additionally, as mucoid P. aeruginosa are often associated with reduced susceptibility to antimicrobial agents, we were encouraged to find that G10KHc was active against one such strain, PDO300.

Read-outs that look alike come from different tables or passages of the source. No end group written: not given here.

As for “KNLRIIRKGIHIIKKY-NH2 [Peptide G2, KNLRIIRKGIHIIKKY*]”, the MIC against S. sanguinis came out at 33.6 ± 7.5 µM; with S. gordonii it was 41.3 ± 14.0 µM; in the experiment on S. mutans (S. mutans 25175), 14.8 ± 2.0 µM; with S. mutans (S. mutans T8), 14.2 ± 1.5 µM; with S. mutans (S. mutans UA159) it was 12.1 ± 4.5 µM; with S. mutans (S. mutans comD) it was 15.3 ± 4.2 µM. In addition, the “biofilm re-growth after treatment (OD600)” value (from here on “biofilm re-growth”) in the experiment on S. gordonii biofilms was “grew similarly to untreated biofilms”; with S. sanguinis biofilms, “grew similarly to untreated biofilms”; in the experiment with S. mutans biofilms, “unaffected”.

In the case of “TFFRAAAASFTQALGK (synthetic competence stimulating peptide (CSP) fragment peptide C16-16 with 4-residue Ala scan)”, the “binding to S. mutans (in words)” value in the experiment on S. mutans UA159 and comD is “binding but at a weaker intensity than CSPC16”.

Take “TFFRLFNRGGGKNLRIIRKGIHIIKKY-NH2 [Peptide M8G2]”: the minimum inhibitory concentration (MIC) in the experiment on S. sanguinis was 15 ± 2.5 µM; in the experiment on S. gordonii, 20 ± 5.0 µM; with S. mutans (S. mutans 25175) it was 3.5 ± 0.5 µM; in the experiment on S. mutans (S. mutans UA159) it was 3.25 ± 1.9 µM; with S. mutans (S. mutans comD), 4.0 ± 2.0 µM. Besides, the “biofilm re-growth” value was “not those of S. sanguinis” in the experiment with S. sanguinis biofilms and “capable of inhibiting the recovery of S. mutans biofilms” in the experiment with S. mutans biofilms.

“SGSLSTFFRLFNRSFTQALGK-OH [CSP, reference compound]”: the MIC in the experiment on S. sanguinis (S. sanguinis) is greater than 60 µM; against S. gordonii (S. gordonii) it was greater than 60 µM; with S. mutans (S. mutans 25175) it was greater than 60 µM; with S. mutans (S. mutans T8) it was greater than 60 µM; in the experiment on S. mutans (S. mutans UA159), 50.8 ± 9.3 µM; against S. mutans (S. mutans comD), greater than 60 µM. In addition, the “biofilm re-growth” value in the experiment with S. gordonii biofilms is listed as “grew similarly to untreated biofilms”; with S. sanguinis biofilms it was “grew similarly to untreated biofilms”; with S. mutans biofilms it was “unaffected”.

“KKHRKHRKHRKH (synthetic targeting peptide Cat-1 domain, KH domain)”: in the experiment with P. aeruginosa (data not shown), the “antimicrobial activity of targeting domain alone” value is listed as “does not have any antimicrobial activity”.

As to “KKHRKHRKHRKHGGSGGSKNLRRIIRKGIHIIKKYG [Peptide G10KHc]”, in the experiment on P. aeruginosa, the MIC range is 0.5 to 29 µM and the “mean MIC” value amounted to 6.22 µM.

KLFKFLRKHLL-OH [BD2.21, KLFKFLRKHLL]: the MIC against S. mutans (planktonic S. mutans) was 5.5 µM. That is a single-digit micromolar value.

“TFFRLFNRAAAAALGK (synthetic competence stimulating peptide (CSP) fragment peptide C16-17 with 4-residue Ala scan)”: in the experiment with S. mutans UA159 and comD, the “binding to S. mutans (in words)” value is on record as “binding but at a weaker intensity than CSPC16”.

For the substance “TRRRLFNRSFTQALGKSGGGFKKFWKWFRRF-OH [Peptide C16-33]”, the values for the MIC in the experiment on S. sanguinis and in the experiment with S. gordonii were 13.3 ± 5.8 µM and 14.6 ± 5.0 µM, respectively. In addition, the “biofilm re-growth” value in the experiment with S. sanguinis biofilms is “not affected”; in the experiment with S. mutans biofilms, “capable of retarding S. mutans biofilm growth”.

As to “TFFRLFTQALGK (synthetic competence stimulating peptide (CSP) fragment peptide C16-3 with internal deletion)”, in the experiment with S. mutans UA159 and comD, the “binding to S. mutans (in words)” value is reported as “binding but at a weaker intensity than CSPC16”.

Take “TFFRLFNRSGGGFKKFWKWFRRF-OH [Peptide M8-33]”: the minimum inhibitory concentration (MIC) is 20 ± 2.0 µM in the experiment with S. sanguinis, 10 ± 2.5 µM in the experiment on S. gordonii, 2.5 ± 2.0 µM against S. mutans (S. mutans UA159) and 2.5 ± 2.0 µM against S. mutans (S. mutans comD). Also, the “biofilm re-growth” value in the experiment on S. sanguinis biofilms is “not affected”; in the experiment on S. mutans biofilms it was “capable of retarding S. mutans biofilm growth”.

As to “TFFRL (synthetic competence stimulating peptide (CSP) fragment peptide C16-11 with C-terminal deletion)”, the “binding to S. mutans (in words)” value in the experiment on S. mutans UA159 and comD is on record as “binding but at a weaker intensity than CSPC16”.

On to “FKKFWKWFRRF-OH [Peptide S6L3-33, FKKFWKWFRRF]”, for which the MIC against S. sanguinis turned out to be 40 ± 7.5 µM; in the experiment on S. gordonii it was 20 ± 5.0 µM; against S. mutans (S. mutans UA159), 7.0 ± 3.0 µM; with S. mutans (S. mutans comD), 6.5 ± 2.5 µM.

Usually MIC stands for the lowest concentration found to suppress growth. A lower MIC goes with a more susceptible organism.
